Test results taken from US7935485B2, “Genetic polymorphisms for identifying individuals at risk for drug-induced vestibular dysfunction” (University of Maryland College Park, priority 2007, dated 2011).
Entries after “also recorded” stand apart in the source; their conditions may differ.

Tests used:
vestibular hair cell = conditions: by inhibiting NO and ROS production; cited from earlier work
[1] = Case/control study, subject characteristics of cases with GM-induced vestibular dysfunction; format: in vivo, human; conditions: attributed to GM therapy
Description: Subjects: Subjects were recruited for participation in a case/control study. Cases were recruited from various vestibular dysfunction support groups through advertisements and direct mailings. Cases were included if they could document profound unilateral or bilateral vestibular loss due specifically to GM administration after the age of 18 yr. […] Normal vestibular function was determined with the use of a clinical balance function questionnaire and medical history information. There are no apparent sex or racial differences in susceptibility to GM-induced vestibular dysfunction, so no inclusion limitations were made on those parameters, although the vast majority of recruited subjects were white. Because allele frequencies for many polymorphisms differ by race and only 10 non-white subjects completed the study, all results are presented for the 263 white participants. Children have higher risk for GM-induced ototoxicity, so only individuals >18 yr. and who were >18 yr. at the time of GM therapy were included. All subjects provided written informed consent and all procedures were approved by the University of Maryland Institutional Review Board.
Procedures: Potential subjects completed medical history and balance function questionnaires, and patients specifically provided medical record release authorizations. […]

[2] = cited from earlier work
[3] = in vivo; cited from earlier work
[4] = provided simultaneously with GM; cited from earlier work

For `O[C@@H]1CO[C@H]2[C@@H]1OC[C@@H]2O` [isosorbide], the “effect on GM-induced vestibular hair cell death” value (vestibular hair cell) is given as “delay GM-induced vestibular hair cell death”.

In the case of gentamicin [GM], the “Hearing complications, (%)” value [1] is given as “(34%)”, the “Renal complications, (%)” value [1] is given as “(14%)” and the vestibular dysfunction ([2]; GM-treated patients (33), different patients than those with auditory dysfunction) is given as “three”. The auditory dysfunction ([2]; GM-treated patients, number affected of 33) was “three of 33” and the metabolism [3] was “not metabolized, but simply excreted by the kidney; also recorded: not metabolized by the body”.

B1: BDNF: brain-derived neurotrophic factor, a neurotrophic factor (protein, UniProt P23560 19-247, looked up)
Neurotrophic factor BDNF …: APMKEANIRGQGGLAYPGVRTHGTLESVNGPKAGSRGLTSLADTFEHVIEELLDEDQKVRPNEENNKDADLYTSRVMLSSQVPLEPPLLFLLEEYKNYLDAANMSMRVRRHSDPARRGELSVCDSISEWVTAADKKTAVDMSGGTVTVLEKVPVSKGQLKQYFYETKCNPMGYTKEGCRGIDKRHWNSQCRTTQSYVRALTMDSKKRIGWRFIRIDTSCVCTLTIKRGR
For B1, the “effect on ototoxic damage” value [4] is given as “limits ototoxic damage”.
